In patent publication US20230130766A1 (SALK INSTITUTE FOR BIOLOGICAL STUDIES, priority 2020, published 2023):

target: T1, ULK1 (Homo sapiens, UniProt O75385); experiment: ULK1 inhibition assay; type: biochemical; settings: * = tested as a mixture of regioisomers
T1 sequence (O75385 1-1050): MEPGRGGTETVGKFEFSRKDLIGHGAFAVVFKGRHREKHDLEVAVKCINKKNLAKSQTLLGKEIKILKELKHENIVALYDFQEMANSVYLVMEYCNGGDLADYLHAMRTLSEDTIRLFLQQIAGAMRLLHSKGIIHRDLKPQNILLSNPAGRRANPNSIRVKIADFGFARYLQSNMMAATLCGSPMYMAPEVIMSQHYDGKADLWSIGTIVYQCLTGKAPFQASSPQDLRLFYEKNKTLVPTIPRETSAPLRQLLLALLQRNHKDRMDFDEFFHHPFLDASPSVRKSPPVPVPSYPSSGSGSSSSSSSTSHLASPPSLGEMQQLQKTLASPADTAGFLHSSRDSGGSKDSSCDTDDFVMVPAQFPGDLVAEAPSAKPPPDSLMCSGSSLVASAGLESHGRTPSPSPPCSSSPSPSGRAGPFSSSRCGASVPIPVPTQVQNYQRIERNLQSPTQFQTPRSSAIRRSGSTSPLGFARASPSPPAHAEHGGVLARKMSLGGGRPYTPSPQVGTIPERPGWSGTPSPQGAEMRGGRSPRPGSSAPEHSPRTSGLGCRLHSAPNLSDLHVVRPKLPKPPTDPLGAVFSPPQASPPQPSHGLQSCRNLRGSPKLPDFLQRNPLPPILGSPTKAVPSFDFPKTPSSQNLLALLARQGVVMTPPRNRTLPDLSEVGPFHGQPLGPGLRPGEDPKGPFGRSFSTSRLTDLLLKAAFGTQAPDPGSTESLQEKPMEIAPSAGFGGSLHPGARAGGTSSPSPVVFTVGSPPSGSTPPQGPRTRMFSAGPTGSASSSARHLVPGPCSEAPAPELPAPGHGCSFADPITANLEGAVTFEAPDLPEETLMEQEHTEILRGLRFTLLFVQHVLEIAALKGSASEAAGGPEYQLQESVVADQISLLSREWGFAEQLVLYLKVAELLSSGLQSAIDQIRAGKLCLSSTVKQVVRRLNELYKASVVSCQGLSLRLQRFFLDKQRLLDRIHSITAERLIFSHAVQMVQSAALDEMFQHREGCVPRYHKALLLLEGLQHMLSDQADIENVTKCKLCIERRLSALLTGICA

| SMILES | IC50 |
| --- | --- |
| CNC(=O)c1ccccc1Oc1nc(Nc2cc(OC)ccc2OC)ncc1C(F)(F)F [Compound 109a] | > 2000 nM |
| COc1ccc(OC)c(Nc2ncc(C(F)(F)F)c(O)n2)c1 [Compound 109b] | > 2000 nM |
| CNC(=O)c1ccccc1Oc1nc(Nc2ccccc2)ncc1Br [Compound 111] | > 2000 nM |
| CNC(=O)c1ccccc1Oc1nc(Nc2cc(Br)ccc2C)ncc1Br [Compound 112] | > 2000 nM |
| CNC(=O)c1ccccc1Oc1nc(Nc2cccc(F)c2F)ncc1C(F)(F)F [Compound 113] | > 2000 nM |
| Clc1cnc(Nc2ccccc2)nc1Nc1ccccc1 [Compound 114] | > 2000 nM |
| CNC(=O)c1ccccc1Oc1nc(Nc2cccc(OC)c2OC)ncc1C(F)(F)F [Compound 115a] | > 2000 nM |
| COc1cccc(Nc2ncc(C(F)(F)F)c(O)n2)c1OC [Compound 115b] | > 2000 nM |
| CNC(=O)c1ccccc1Oc1nc(Nc2ccccc2SC)ncc1C(F)(F)F [Compound 116a] | > 2000 nM |
| CSc1ccccc1Nc1ncc(C(F)(F)F)c(Nc2ccccc2SC)n1 [Compound 116b] | > 2000 nM |
| CNC(=O)c1ccccc1Sc1nc(Nc2cc(OC)ccc2C)ncc1C(F)(F)F [Compound 117] | > 2000 nM |
| O=C1CCc2cc(Nc3ncc(C(F)(F)F)c(Nc4ccccc4N4CCOCC4)n3)ccc2N1 [Compound 118a] | < 200 nM |
| O=C1CCc2cc(Nc3nc(Nc4ccccc4N4CCOCC4)ncc3C(F)(F)F)ccc2N1 [Compound 118b] | > 2000 nM |
| Oc1ncc(C(F)(F)F)c(Nc2ccccc2N2CCOCC2)n1 [Compound 118c] | > 2000 nM |
| COc1cccc(Nc2nc(Nc3ccc4c(c3)CCC(=O)N4)ncc2C(F)(F)F)c1 [Compound 119] | < 200 nM |
| O=C1CCc2cc(Nc3ncc(C(F)(F)F)c(Nc4ccccc4OC(F)F)n3)ccc2N1 [Compound 120a] | < 200 nM |
| O=C1CCc2cc(Nc3ncc(C(F)(F)F)c(Nc4ccc5c(c4)CCC(=O)N5)n3)ccc2N1 [Compound 120c] | < 200 nM |
| COc1cc(N2CCOCC2)ccc1Nc1nc(Nc2ccc3c(c2)CCC(=O)N3)ncc1C(F)(F)F [Compound 123a] | < 200 nM |
| COc1cc(N2CCOCC2)ccc1Nc1ncc(C(F)(F)F)c(Nc2ccc3c(c2)CCC(=O)N3)n1 [Compound 123b] | < 200 nM |
| FC(F)(F)c1cnc(Nc2ccc3c(c2)OCO3)nc1Nc1ccc2c(c1)OCO2 [Compound 124c] | < 200 nM |
| Cc1ccc(Nc2nc(Nc3ccc4c(c3)CCC(=O)N4)ncc2C(F)(F)F)cc1C [Compound 125] | < 200 nM |
| CNC(=O)c1cccc(Nc2nc(Nc3ccc4c(c3)CCC(=O)N4)ncc2C(F)(F)F)c1 [Compound 128] | < 200 nM |
| O=C1CCc2cc(Nc3ncc(C(F)(F)F)c(Nc4ccc5c(c4)CCC5)n3)ccc2N1 [Compound 129] | < 200 nM |
| O=C1CCc2cc(Nc3ncc(C(F)(F)F)c(NC4Cc5ccccc5C4)n3)ccc2N1 [Compound 130a] | < 200 nM |
| O=C1CCc2cc(Nc3nc(NC4Cc5ccccc5C4)ncc3C(F)(F)F)ccc2N1 [Compound 130b] | > 2000 nM |

| SMILES | IC50 |
| --- | --- |
| O=C1CCc2cc(Nc3ncc(C(F)(F)F)c(NC4CC4)n3)ccc2N1 [Compound 131a] | < 200 nM |
| O=C1CCc2cc(Nc3nc(NC4CC4)ncc3C(F)(F)F)ccc2N1 [Compound 131b] | < 200 nM |
| CC(=O)Nc1ccc(Nc2nc(Nc3ccc4c(c3)CCC(=O)N4)ncc2C(F)(F)F)cc1 [Compound 132] | < 200 nM |
| COc1cccc(Nc2nc(Nc3ccc4c(c3)OCCO4)ncc2C(F)(F)F)c1 [Compound 133] | < 200 nM |
| O=C1CCc2cc(Nc3ncc(Cl)c(Nc4ccc5c(c4)CCC(=O)N5)n3)ccc2N1 [Compound 134] | < 200 nM |
| COc1cnc(Nc2ccc3c(c2)CCC(=O)N3)nc1Nc1ccc2c(c1)CCC(=O)N2 [Compound 135] | > 2000 nM |
| Fc1c(Nc2ncc(C(F)(F)F)c(Nc3ccc4c(c3)OCO4)n2)cccc1C(F)(F)F [Compound 141a] | > 2000 nM |
| Fc1c(Nc2nc(Nc3ccc4c(c3)OCO4)ncc2C(F)(F)F)cccc1C(F)(F)F [Compound 141b] | < 200 nM |
| COc1cccc(Nc2nc(Nc3ccc4c(c3)CCC(=O)N4)ncc2Br)c1 [Compound 142] | < 200 nM |
| COc1cccc(Nc2nc(Nc3ccc4c(c3)CCC(=O)N4)ncc2Cl)c1 [Compound 143a] | < 200 nM |
| COc1cccc(Nc2ncc(Cl)c(Nc3cccc(OC)c3)n2)c1 [Compound 143b] | < 200 nM |
| O=C1CCc2cc(Nc3ncc(C(F)(F)F)c(NC4CCC4)n3)ccc2N1 [Compound 150a] | < 200 nM |
| O=C1CCc2cc(Nc3nc(NC4CCC4)ncc3C(F)(F)F)ccc2N1 [Compound 150b] | < 200 nM |
| COCCNc1nc(Nc2ccc3c(c2)CCC(=O)N3)ncc1C(F)(F)F [Compound 151a] | < 200 nM |
| COCCNc1ncc(C(F)(F)F)c(Nc2ccc3c(c2)CCC(=O)N3)n1 [Compound 151b] | < 200 nM |
| FC(F)(F)c1cnc(Nc2cnc3[nH]ccc3c2)nc1NC1CC1 [Compound 152a] | < 200 nM |
| CS(=O)(=O)c1cccc(CNc2nc(Nc3ccc4[nH]ccc4c3)ncc2Br)c1 [Compound 153] | > 2000 nM |
| Brc1cnc(Nc2ccc3[nH]ccc3c2)nc1Nc1ccccn1 [Compound 154] | < 200 nM |
| O=C1CCc2cc(Nc3ncc(Br)c(Nc4ccccn4)n3)ccc2N1 [Compound 155] | < 200 nM |
| COc1ccc(Nc2nc(Nc3ccc4c(c3)CCC(=O)N4)ncc2Br)cn1 [Compound 156] | < 200 nM |
| FC(F)(F)c1cnc(Nc2ccc3c(c2)OCCO3)nc1NC1CC1 [Compound 158a] | < 200 nM |
| FC(F)(F)c1cnc(NC2CC2)nc1Nc1ccc2c(c1)OCCO2 [Compound 158b] | < 200 nM |
| O=C1CCc2cc(Nc3ncc(Br)c(NC4CC4)n3)ccc2N1 [Compound 159] | < 200 nM |
| O=C1CCc2cc(Nc3ncc(C(F)(F)F)c(NC4CCCC4)n3)ccc2N1 [Compound 160a] | < 200 nM |
| FC(F)(F)c1cnc(Nc2cnc3[nH]ccc3c2)nc1NC1CCC1 [Compound 161a] | < 200 nM |

| SMILES | IC50 |
| --- | --- |
| FC(F)(F)c1cnc(NC2CCC2)nc1Nc1cnc2[nH]ccc2c1 [Compound 161b] | < 200 nM |
| FC(F)(F)c1cnc(NC2Cc3ccccc3C2)nc1Nc1ccc2c(c1)OCO2 [Compound 163a] | > 2000 nM |
| FC(F)(F)c1cnc(Nc2ccc3c(c2)OCO3)nc1NC1Cc2ccccc2C1 [Compound 163b] | > 2000 nM |
| FC(F)(F)c1cnc(N2CCCC2)nc1Nc1ccc2c(c1)OCO2 [Compound 164a] | > 2000 nM |
| FC(F)(F)c1cnc(N2CCC2)nc1Nc1ccc2c(c1)OCO2 [Compound 166a] | > 2000 nM |
| FC(F)(F)c1cnc(Nc2ccc3c(c2)OCO3)nc1N1CCC1 [Compound 166b] | < 200 nM |
| FC(F)(F)c1cnc(NCC2CC2)nc1Nc1ccc2c(c1)OCO2 [Compound 167a] | < 200 nM |
| FC(F)(F)c1cnc(Nc2ccc3c(c2)OCO3)nc1NCC1CC1 [Compound 167b] | < 200 nM |
| FC(F)(F)c1cnc(NC2CCC2)nc1Nc1ccc2c(c1)OCO2 [Compound 168a] | < 200 nM |
| FC(F)(F)c1cnc(NC2CC2)nc1NC1CC1 [Compound 169] | > 2000 nM |
| CNC(=O)c1ccccc1Oc1nc(Nc2cc(OC)ccc2C)ncc1Br [Compound 170] | > 2000 nM |
| COc1cc(Nc2ncc(Br)c(N(C)C(=O)c3ccccc3O)n2)cc(OC)c1OC [Compound 171b] | < 200 nM |
| CCCCOc1nc(Nc2cc(OC)c(OC)c(OC)c2)ncc1Br [Compound 173] | < 200 nM |
| Brc1cnc(Nc2cnc3[nH]ccc3c2)nc1NC1CC1 [Compound 174] | < 200 nM |
| O=C1CCc2cc(Nc3ncc(C(F)(F)F)c(OC4CCC4)n3)ccc2N1 [Compound 175] | < 200 nM |
| FC(F)(F)c1cnc(Nc2cnc3[nH]ccc3c2)nc1Nc1ccc2c(c1)OCO2 [Compound 177] | < 200 nM |
| O=C1CCc2cc(Nc3ncc(C(F)(F)F)c(Nc4ccc5c(c4)OC(F)(F)O5)n3)ccc2N1 [Compound 178a] | < 200 nM |
| O=C1CCc2cc(Nc3nc(Nc4ccc5c(c4)OC(F)(F)O5)ncc3C(F)(F)F)ccc2N1 [Compound 178b] | < 200 nM |
| O=C1CCc2cc(Nc3ncc(C(F)(F)F)c(OC4Cc5ccccc5C4)n3)ccc2N1 [Compound 180a] | < 200 nM |
| O=C1CCc2cc(Nc3nc(OC4Cc5ccccc5C4)ncc3C(F)(F)F)ccc2N1 [Compound 180b] | > 2000 nM |
| FC(F)(F)c1cnc(Nc2cnc3[nH]ccc3c2)nc1Nc1ccccc1 [Compound 181a] | < 200 nM |
| CNc1nc(Nc2cnc3[nH]ccc3c2)ncc1C(F)(F)F [Compound 182a] | < 200 nM |
| CC1CN1c1nc(Nc2ccc3c(c2)CCC(=O)N3)ncc1C(F)(F)F (stereo not shown) [Compound 183a] | > 2000 nM |
